Here are results for 1 molecule from patent publication US11420969B2 (Exonate Limited, priority 2017, dated 2022).

SMILES strings stand for the structures.

In assay [1] the test system is laser-induced choroidal neovascularisation (CNV) lesions. Put plainly: In vivo angiogenesis assay: laser-induced choroidal neovascularisation (CNV). Also noted: species or system C57/B6 mice. Particulars: laser-induced mouse model of CNV; topical eye drops twice daily, 2 mg/mL, 10 μl; one week; FIG. 1(a). Here is the method: In Vivo Angiogenesis Assay: Laser-Induced Choroidal Neovascularisation (CNV) Protocol
6-8 week-old female C57/B6 mice were anesthetized with an intraperitoneal injection of a mixture of 50 mg/kg ketamine and 0.5 mg/kg medetomidine. The pupils were immediately dilated by topical (eyedrop) application with a dilator such as 5% phenylephrine hydrochloride and 1% tropicamide. Four photocoagulation lesions were delivered with a green Merilas 532α laser (450 mW, 130 ms) between the “large” retinal vessels in clear space with no vessels in a peripapillary distribution at a distance of 1-2 disc-diameters in each eye. Only clean laser lesions with a subretinal bubble at the time of treatment were included in the study. Immediately following laser photocoagulation the animals were given topical eye drops of candidate compounds twice daily (2 mg/mL, 10 μl, eyes held for 30 seconds to prevent animal wiping drop away).
After one week, mice were anesthetized with an intraperitoneal injection of a mixture of 50 mg/kg ketamine and 0.5 mg/kg medetomidine. The pupils were immediately dilated by topical (eyedrop) application with a dilator such as 5% phenylephrine hydrochloride and 1% tropicamide. Mice were administered an intraperitoneal injection of sodium fluorescein (10%). […]
The optical density of each well was measured immediately, using a microplate reader set to 450 nm.

For a further assay, the target named is T1, CYP1A2 (Homo sapiens, UniProt P05177).
T1 construct: from tissue; host or cells: human liver microsomes
T1 sequence (P05177 1-516): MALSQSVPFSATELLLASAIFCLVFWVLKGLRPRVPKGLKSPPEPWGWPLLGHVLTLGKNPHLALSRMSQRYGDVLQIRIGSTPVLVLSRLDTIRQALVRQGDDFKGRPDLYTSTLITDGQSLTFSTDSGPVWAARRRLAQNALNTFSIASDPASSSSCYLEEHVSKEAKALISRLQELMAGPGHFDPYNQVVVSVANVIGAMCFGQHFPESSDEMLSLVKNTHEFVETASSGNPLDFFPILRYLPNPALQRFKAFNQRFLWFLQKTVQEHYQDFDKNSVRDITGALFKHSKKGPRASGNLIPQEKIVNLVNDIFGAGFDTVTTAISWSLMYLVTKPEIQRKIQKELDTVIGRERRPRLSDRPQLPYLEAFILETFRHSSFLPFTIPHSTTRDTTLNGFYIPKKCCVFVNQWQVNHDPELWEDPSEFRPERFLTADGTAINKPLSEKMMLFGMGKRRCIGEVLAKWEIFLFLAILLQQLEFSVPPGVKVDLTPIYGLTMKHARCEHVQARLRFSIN
Put plainly: CYP inhibition assay, human liver microsomes, substrate tacrine. The class given is in vitro ADME. Particulars: human liver microsomes, 10 min incubation, LC-MS/MS; read-out: CYP Inhibition Activity (IC50/nM) CYP1A2. An outline of the steps:
(§1)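 Test compound or positive inhibitor was combined with a pooled substrate mix and pre-incubated 20 min at 37 °C; reactions were started with pre-warmed NADPH and run 10 min at 37 °C. Cold acetonitrile stopped them, and supernatants were analysed by LC-MS/MS to derive % inhibition and IC50.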
On the technique in general: Liver microsomes are a subcellular fraction often used to study metabolism.

The next assay addresses T2, CYP2D6 (Homo sapiens, UniProt P10635).
T2 construct: from tissue; host or cells: human liver microsomes
Nature of the assay: biochemical. The class given is in vitro ADME. An outline of the steps:
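Human liver microsomes (0.253 mg/mL working stock) pre-incubated with compound and substrate pool at 37° C for 20 min. Reaction started with NADPH and run 10 min at 37° C, stopped with cold ACN. Metabolite analysed by LC-MS/MS; % inhibition and IC50 calculated versus inhibitor-free control.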

The target of another assay is T3, CYP3A4 (Homo sapiens, UniProt P08684).
T3 construct: from tissue; host or cells: human liver microsomes
T3 sequence (P08684 whole entry): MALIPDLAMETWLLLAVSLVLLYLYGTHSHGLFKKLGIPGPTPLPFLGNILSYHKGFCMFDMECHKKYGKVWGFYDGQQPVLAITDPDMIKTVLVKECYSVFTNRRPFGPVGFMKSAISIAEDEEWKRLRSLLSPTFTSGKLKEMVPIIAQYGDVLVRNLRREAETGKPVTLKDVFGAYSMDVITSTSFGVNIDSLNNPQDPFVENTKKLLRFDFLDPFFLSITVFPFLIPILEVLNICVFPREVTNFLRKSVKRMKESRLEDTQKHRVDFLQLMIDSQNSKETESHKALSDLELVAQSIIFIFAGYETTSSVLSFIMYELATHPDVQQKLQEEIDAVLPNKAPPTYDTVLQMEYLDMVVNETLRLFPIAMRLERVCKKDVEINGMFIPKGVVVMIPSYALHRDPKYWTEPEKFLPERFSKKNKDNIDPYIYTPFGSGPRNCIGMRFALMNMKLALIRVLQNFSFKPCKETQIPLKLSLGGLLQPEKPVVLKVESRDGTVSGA
Put plainly: CYP inhibition assay, human liver microsomes, substrate midazolam. In kind it is in vitro ADME. Particulars: human liver microsomes, 10 min incubation, LC-MS/MS; read-out: CYP Inhibition Activity (IC50/nM) CYP3A4. An outline of the steps:
as §1

The next assay addresses SRPK1 (Homo sapiens, UniProt Q96SB4). Nature of the assay: In vitro SRPK1 assay (Kinase-Glo). In kind it is biochemical. Background: Kinase-Glo measures the ATP left after a reaction by luminescence.
For a further assay, the target named is T4, CYP2C19 (Homo sapiens, UniProt P33261).
T4 construct: from tissue; host or cells: human liver microsomes
T4 sequence (P33261 whole entry): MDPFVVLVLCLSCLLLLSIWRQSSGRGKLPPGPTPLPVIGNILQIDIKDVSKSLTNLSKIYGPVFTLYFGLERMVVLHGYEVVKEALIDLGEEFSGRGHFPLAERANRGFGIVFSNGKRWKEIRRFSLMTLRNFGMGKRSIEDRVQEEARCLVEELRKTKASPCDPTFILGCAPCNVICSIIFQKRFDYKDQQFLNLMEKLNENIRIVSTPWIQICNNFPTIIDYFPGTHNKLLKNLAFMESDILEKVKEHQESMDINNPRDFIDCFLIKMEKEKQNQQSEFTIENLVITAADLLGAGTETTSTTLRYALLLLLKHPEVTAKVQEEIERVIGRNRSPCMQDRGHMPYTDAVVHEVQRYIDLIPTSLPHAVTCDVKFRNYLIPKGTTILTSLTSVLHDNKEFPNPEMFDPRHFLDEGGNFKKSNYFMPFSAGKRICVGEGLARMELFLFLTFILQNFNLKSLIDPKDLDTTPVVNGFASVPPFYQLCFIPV
Nature of the assay: CYP inhibition assay, human liver microsomes, substrate S-mephenytoin. The class given is in vitro ADME. Particulars: human liver microsomes, 10 min incubation, LC-MS/MS; read-out: CYP Inhibition Activity (IC50/nM) CYP2C19. The procedure, abridged:
as §1

In a further assay the target is T5, CYP2C9 (Homo sapiens, UniProt P11712).
T5 construct: from tissue; host or cells: human liver microsomes
T5 sequence (P11712 whole entry): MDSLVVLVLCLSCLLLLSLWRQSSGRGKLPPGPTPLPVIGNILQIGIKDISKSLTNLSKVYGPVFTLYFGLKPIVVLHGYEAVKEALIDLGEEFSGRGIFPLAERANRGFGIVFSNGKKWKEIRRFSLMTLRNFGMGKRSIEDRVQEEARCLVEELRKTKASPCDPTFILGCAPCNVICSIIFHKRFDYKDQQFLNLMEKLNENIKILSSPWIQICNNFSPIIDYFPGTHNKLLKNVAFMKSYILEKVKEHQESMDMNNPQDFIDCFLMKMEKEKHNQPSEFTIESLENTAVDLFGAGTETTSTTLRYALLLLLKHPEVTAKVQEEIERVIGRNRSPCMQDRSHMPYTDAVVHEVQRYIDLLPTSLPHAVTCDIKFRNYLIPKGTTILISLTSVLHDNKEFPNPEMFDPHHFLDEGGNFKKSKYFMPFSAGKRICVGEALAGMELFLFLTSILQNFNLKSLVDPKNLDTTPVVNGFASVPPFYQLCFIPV
Nature of the assay: CYP inhibition assay, human liver microsomes, substrate diclofenac. In kind it is in vitro ADME. Conditions: human liver microsomes, 10 min incubation, LC-MS/MS; read-out: CYP Inhibition Activity (IC50/nM) CYP2C9. The procedure, abridged: as §1

Sequence of SRPK1 (Q96SB4 whole entry, species assumed): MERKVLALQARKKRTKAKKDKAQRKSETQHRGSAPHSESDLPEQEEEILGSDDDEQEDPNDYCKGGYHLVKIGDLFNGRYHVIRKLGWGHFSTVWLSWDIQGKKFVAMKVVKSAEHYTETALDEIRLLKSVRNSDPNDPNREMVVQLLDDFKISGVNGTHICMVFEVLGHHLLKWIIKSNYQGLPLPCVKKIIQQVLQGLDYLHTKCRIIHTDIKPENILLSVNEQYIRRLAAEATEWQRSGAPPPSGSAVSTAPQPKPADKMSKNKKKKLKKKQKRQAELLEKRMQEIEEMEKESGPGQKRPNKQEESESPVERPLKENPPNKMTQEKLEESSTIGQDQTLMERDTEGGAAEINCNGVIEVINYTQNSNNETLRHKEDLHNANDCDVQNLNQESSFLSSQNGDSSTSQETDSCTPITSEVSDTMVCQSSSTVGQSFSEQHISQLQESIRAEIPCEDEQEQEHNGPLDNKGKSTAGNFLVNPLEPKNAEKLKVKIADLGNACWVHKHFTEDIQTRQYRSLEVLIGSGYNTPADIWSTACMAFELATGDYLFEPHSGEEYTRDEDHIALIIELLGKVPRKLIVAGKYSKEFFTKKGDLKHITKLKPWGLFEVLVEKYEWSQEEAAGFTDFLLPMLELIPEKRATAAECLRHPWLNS
T2 sequence (P10635 whole entry): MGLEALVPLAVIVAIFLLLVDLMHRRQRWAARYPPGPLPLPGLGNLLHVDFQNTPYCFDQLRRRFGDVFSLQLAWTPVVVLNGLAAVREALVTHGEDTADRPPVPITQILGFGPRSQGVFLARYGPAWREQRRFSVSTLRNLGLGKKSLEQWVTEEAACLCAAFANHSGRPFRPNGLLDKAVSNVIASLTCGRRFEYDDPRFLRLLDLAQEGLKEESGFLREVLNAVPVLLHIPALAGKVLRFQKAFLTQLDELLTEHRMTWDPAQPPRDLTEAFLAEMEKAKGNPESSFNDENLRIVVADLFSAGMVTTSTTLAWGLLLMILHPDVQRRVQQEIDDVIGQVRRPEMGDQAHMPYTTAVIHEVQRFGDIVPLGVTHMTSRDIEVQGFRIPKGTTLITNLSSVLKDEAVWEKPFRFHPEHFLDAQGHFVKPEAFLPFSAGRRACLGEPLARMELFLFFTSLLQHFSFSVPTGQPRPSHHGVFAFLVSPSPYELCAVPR

For `CC1(O)CCN(c2ccc(Cl)cc2NC(=O)c2ccc(C3CCOCC3)o2)CC1` [Example 12], in assay [1], the “anti-angiogenic activity on lesion size” value was “improved anti-angiogenic activity on lesion size and the same efficacy as reference compounds”. The IC50 on CYP1A2 was 13900 nM; against CYP2D6, 23.2 µM; at CYP3A4, 2660 nM; on SRPK1 it was 0.3 nM; on CYP2C19, 11800 nM; on CYP2C9, 6980 nM.
